# Results reported in patent US11820766B2, “Monoacylglycerol lipase modulators” (Janssen Pharmaceutica NV, priority 2018, dated 2023).
# Target: T1, human MGL from HeLa cells (Homo sapiens, UniProt Q99685)
# T1 construct: combining endogenously expressed MGL from HeLa cells with test compounds; endogenous in cells; host or cells: HeLa cells / cell homogenates
# T1 sequence (Q99685 1-303): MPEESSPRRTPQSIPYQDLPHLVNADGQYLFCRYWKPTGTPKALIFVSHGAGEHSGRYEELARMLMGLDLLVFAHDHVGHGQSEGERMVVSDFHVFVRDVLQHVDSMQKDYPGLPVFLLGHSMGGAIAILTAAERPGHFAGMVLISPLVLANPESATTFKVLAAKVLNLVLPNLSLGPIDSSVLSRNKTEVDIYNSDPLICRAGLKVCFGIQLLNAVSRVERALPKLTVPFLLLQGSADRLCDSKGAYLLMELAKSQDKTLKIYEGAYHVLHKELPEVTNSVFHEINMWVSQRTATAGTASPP
# Assay: In vitro MGL activity assay: [glycerol-1,3-3H]-oleyl glycerol cleavage by MGL from HeLa cells
# Assay type: biochemical
# Conditions: 300 nM [Glycerol-1,3-3H]-oleyl glycerol, one hour
# Excerpt: MGL is the predominant hydrolase in HeLa cells/cell homogenates.
row,Structure (SMILES),IC50 [nM]
1,"COc1nccc(C(=O)N2CCc3c(nn(C)c3-c3ccc(F)c(C)c3)[C@@H]2C)c1C [Example 598, [(7S)-3-(4-Fluoro-3-methyl-phenyl)-2,7-dimethyl-5,7-dihydro-4H-pyrazolo[3,4-c]pyridin-6-yl]-(2-methoxy-3-methyl-4-pyridyl)methanone]",29.9
2,"COc1c(C(=O)N2CCc3c(nn(C)c3-c3cc(F)c(F)c(F)c3)[C@@H]2C)ccnc1C [Example 599, [(7S)-2,7-Dimethyl-3-(3,4,5-trifluorophenyl)-5,7-dihydro-4H-pyrazolo[3,4-c]pyridin-6-yl]-(3-methoxy-2-methyl-4-pyridyl)methanone]",71.4
3,"C[C@H]1c2nn(C)c(-c3cc(F)c(F)c(F)c3)c2CCN1C(=O)c1nc(-c2ccccc2)cn1C [Example 600, [(7S)-2,7-Dimethyl-3-(3,4,5-trifluorophenyl)-5,7-dihydro-4H-pyrazolo[3,4-c]pyridin-6-yl]-(1-methyl-4-phenyl-imidazol-2-yl)methanone]",110
4,"C[C@H]1c2nn(C)c(-c3cc(F)c(F)c(F)c3)c2CCN1C(=O)c1cn(-c2ccccc2)cn1 [Example 601, [(7S)-2,7-Dimethyl-3-(3,4,5-trifluorophenyl)-5,7-dihydro-4H-pyrazolo[3,4-c]pyridin-6-yl]-(1-phenylimidazol-4-yl)methanone]",252
5,"C[C@H]1c2nn(C)c(-c3cc(F)c(F)c(F)c3)c2CCN1C(=O)c1cnc(-c2ccccn2)n1C [Example 602, [(7S)-2,7-Dimethyl-3-(3,4,5-trifluorophenyl)-5,7-dihydro-4H-pyrazolo[3,4-c]pyridin-6-yl]-[3-methyl-2-(2-pyridyl)imidazol-4-yl]methanone]",460
6,"C[C@H]1c2nn(C)c(-c3cc(F)c(F)c(F)c3)c2CCN1C(=O)c1c(F)cccc1-n1cccn1 [Example 603, [(7S)-2,7-Dimethyl-3-(3,4,5-trifluorophenyl)-5,7-dihydro-4H-pyrazolo[3,4-c]pyridin-6-yl]-(2-fluoro-6-pyrazol-1-yl-phenyl)methanone]",114
7,"C[C@H]1c2nn(C)c(-c3cc(F)c(F)c(F)c3)c2CCN1C(=O)c1cccc2c1OC1(CC1)CN2 [Example 604, [(7S)-2,7-Dimethyl-3-(3,4,5-trifluorophenyl)-5,7-dihydro-4H-pyrazolo[3,4-c]pyridin-6-yl]-spiro[3,4-dihydro-1,4-benzoxazine-2,1′-cyclopropane]-8-yl-methanone]",102
8,"C[C@H]1c2nn(C)c(-c3cc(F)c(F)c(F)c3)c2CCN1C(=O)c1ccnc2[nH]cc(F)c12 [Example 605, [(7S)-2,7-Dimethyl-3-(3,4,5-trifluorophenyl)-5,7-dihydro-4H-pyrazolo[3,4-c]pyridin-6-yl]-(3-fluoro-1H-pyrrolo[2,3-b]pyridin-4-yl)methanone]",1.1
9,"C[C@H]1c2nn(C)c(-c3cc(F)c(F)c(F)c3)c2CCN1C(=O)c1ncnc2c1ncn2C [Example 606, [(7S)-2,7-Dimethyl-3-(3,4,5-trifluorophenyl)-5,7-dihydro-4H-pyrazolo[3,4-c]pyridin-6-yl]-(9-methylpurin-6-yl)methanone]",724
10,"COc1cncc(F)c1C(=O)N1CCc2c(nn(C)c2-c2cc(F)c(F)c(F)c2)[C@@H]1C [Example 607, [(7S)-2,7-Dimethyl-3-(3,4,5-trifluorophenyl)-5,7-dihydro-4H-pyrazolo[3,4-c]pyridin-6-yl]-(3-fluoro-5-methoxy-4-pyridyl)methanone]",18.2
11,"COc1ccnc(C(=O)N2CCc3c(nn(C)c3-c3cc(F)cc(C(F)F)c3)[C@@H]2C)c1Cl [Example 608, (3-Chloro-4-methoxy-2-pyridyl)-[(7S)-3-[3-(difluoromethyl)-5-fluoro-phenyl]-2,7-dimethyl-5,7-dihydro-4H-pyrazolo[3,4-c]pyridin-6-yl]methanone]",21.7
12,"COc1nccc(C(=O)N2CCc3c(nn(C)c3-c3cc(F)cc(C(F)F)c3)[C@@H]2C)c1C [Example 609, [(7S)-3-[3-(Difluoromethyl)-5-fluoro-phenyl]-2,7-dimethyl-5,7-dihydro-4H-pyrazolo[3,4-c]pyridin-6-yl]-(2-methoxy-3-methyl-4-pyridyl)methanone]",22.7
13,"C[C@H]1c2nn(C)c(-c3cc(F)cc(C(F)F)c3)c2CCN1C(=O)c1ccc2c(c1)OCCC2 [Example 610, Chroman-7-yl-[(7S)-3-[3-(difluoromethyl)-5-fluoro-phenyl]-2,7-dimethyl-5,7-dihydro-4H-pyrazolo[3,4-c]pyridin-6-yl]methanone]",29.4

# The remaining lines, values ahead:
row,IC50 [nM],Structure (SMILES)
1,25.6,"COc1cc(F)cc(-c2c3c(nn2C)[C@H](C)N(C(=O)c2ccc4c(c2)OCCC4)CC3)c1 [Example 611, Chroman-7-yl-[(7S)-3-(3-fluoro-5-methoxy-phenyl)-2,7-dimethyl-5,7-dihydro-4H-pyrazolo[3,4-c]pyridin-6-yl]methanone]"
2,29.8,"COc1ccnc(C(=O)N2CCc3c(nn(C)c3-c3cc(F)cc(OC(F)F)c3)[C@@H]2C)c1Cl [Example 612, (3-Chloro-4-methoxy-2-pyridyl)-[(7S)-3-[3-(difluoromethoxy)-5-fluoro-phenyl]-2,7-dimethyl-5,7-dihydro-4H-pyrazolo[3,4-c]pyridin-6-yl]methanone]"
3,27.8,"COc1cc(F)cc(-c2c3c(nn2C)[C@H](C)N(C(=O)c2ccnc(OC)c2C)CC3)c1 [Example 613, [(7S)-3-(3-Fluoro-5-methoxy-phenyl)-2,7-dimethyl-5,7-dihydro-4H-pyrazolo[3,4-c]pyridin-6-yl]-(2-methoxy-3-methyl-4-pyridyl)methanone]"
4,35.9,"COc1cc(F)cc(-c2c3c(nn2C)[C@H](C)N(C(=O)c2nccc(OC)c2Cl)CC3)c1 [Example 614, (3-Chloro-4-methoxy-2-pyridyl)-[(7S)-3-(3-fluoro-5-methoxy-phenyl)-2,7-dimethyl-5,7-dihydro-4H-pyrazolo[3,4-c]pyridin-6-yl]methanone]"
5,32.4,"Cc1nc(C(=O)N2CCc3c(nn(C)c3-c3cc(F)c(F)c(F)c3)[C@@H]2C)c2cnn(C)c2n1 [Example 617, (S)-(1,6-Dimethyl-1H-pyrazolo[3,4-d]pyrimidin-4-yl)(2,7-dimethyl-3-(3,4,5-trifluorophenyl)-2,4,5,7-tetrahydro-6H-pyrazolo[3,4-c]pyridin-6-yl)methanone]"
6,18.2,Cc1nc2ccc(C3CC3)cn2c1C(=O)N1CCc2c(nn(C)c2-c2cc(F)c(F)c(F)c2)[C@@H]1C [Example 618]
